According to patent publication US6469162B1, “Compounds with chelation affinity and selectivity for first transition series elements: use in medical therapy and diagnosis” (Concat, Ltd., priority 1995, dated 2002):

Experiments:
[1] = test system: mature, nonreplicating cultures of HFF (human foreskin fibroblasts); test: Toxicity toward nonproliferating mammalian cells in vitro; type: cell-based; settings: 0.3 mM, nonreplicating HFF in maintenance media, five-day period of observation
[2] = Subacute toxicity, repeated intravenous doses to rats; type: in vivo, Sprague Dawley rats; settings: 0.05 millimoles per kg i.v. on 10 days
Source text: Ten male Sprague Dawley rats 29 days old and weighing between 73.4 and 87.8 grams at the beginning of the experiment were randomized, employing the block stratification method, into two groups consisting of five rats each. On each of days 1, 2, 3, 6, 7, 8, 9, 10, 13 and 14 of the experiment one set of rats received an intravenous dose of N,N′,N″-tris(dihydroxyphosphorylmethyl)-1,4,7-triazacyclononane (Example 1 C in U.S. Pat. No. 5,236,695) equal to 0.05 millimoles per kg of initial body weight (experimental group) while the other group received an equivalent volume of normal saline solution. The weights of the animals were recorded three times per week and the animals were sacrificed on the 28th day, major organs removed and weighed and tissues removed for microscopic examination.

[3] = Acute in vivo toxicity, single intravenous dose to mice; settings: 4.0 mM/kg single intravenous dose, survival for over 14 days
Protocol: This example illustrates the low in vivo toxicity of a representative ligand administer intravenously to mice.
This in vivo LD50 toxicity dose results in an instantaneous in vivo concentration which is orders of magnitude greater than the dose of this agent which inhibits mammalian cell replication in vitro (0.009 mM/L).

Row | SMILES | effect on resting cells [1] | weight or rate of weight gain, experimental vs control group ([2]; injection period and two-week post-injection period) | microscopic examination of tissues, experimental vs control group ([2]; necropsy on the 28th day) | weights of major organs, experimental vs control group ([2]; sacrificed on the 28th day) | mice surviving [3]
1 | O=P(O)(O)CN1CCN(CP(=O)(O)O)CCN(CP(=O)(O)O)CC1 [N,N′,N″-tris(dihydroxyphosphorylmethyl)-1,4,7-triazacyclononane] | no effect | no statistically significant difference | no differences | no differences | –
2 | O=P(O)(O)CN1CCN(CP(=O)(O)O)CCN(CP(=O)(O)O)CC1 [N,N′,N″-tris-(dihydroxyphosphorylmethyl)-1,4,7-triazacyclononane] | – | – | – | – | Over 50%
